# Earlier results as cited in patent publication US20060035881A1, “Use of targeted oxidative therapeutic formulation in endodontic treatment” (priority 2004, published 2006).
# Key:
# [1] = system: peroxide-sensitive E. coli; settings: infused into the blood of rabbits infected with peroxide-sensitive E. coli
# E. coli = settings: increasing concentration of peroxide in rabbit or human blood containing E. coli
smiles,measurement,setting,value
"OO [hydrogen peroxide, Hydrogen peroxide]",bactericidal effect in vivo,[1],no bactericidal effect
same,direct bactericidal activity ex vivo,E. coli,no evidence of direct bactericidal activity
